Test results from publication PMC6218659, “Structures of DPAGT1 Explain Glycosylation Disease Mechanisms and Advance TB Antibiotic Design” (Cell, 2018).
Positions count from the first letter of the chain named. Where a name gives a salt, the structure may show the parent alone.

How the values were obtained:
DPAGT1 Tyr170Cys = biological target: T1, DPAGT1 Tyr170Cys (Homo sapiens, UniProt Q9H3H5, Y170C); assay: Thermostability assay (label free differential scanning fluorimetry); type: binding, H. sapiens; conditions: 50 μM compound
T1 construct: combined with the LIC-adapted primers to amplify the complete DPAGT1 gene, including the desired mutations; 6xHis purification tag with TEV site (N, cleaved yes); made in house; host or cells: Spodoptera frugiperda Sf9 insect cells (baculovirus)
T1 sequence (Q9H3H5 1-408 Y170C): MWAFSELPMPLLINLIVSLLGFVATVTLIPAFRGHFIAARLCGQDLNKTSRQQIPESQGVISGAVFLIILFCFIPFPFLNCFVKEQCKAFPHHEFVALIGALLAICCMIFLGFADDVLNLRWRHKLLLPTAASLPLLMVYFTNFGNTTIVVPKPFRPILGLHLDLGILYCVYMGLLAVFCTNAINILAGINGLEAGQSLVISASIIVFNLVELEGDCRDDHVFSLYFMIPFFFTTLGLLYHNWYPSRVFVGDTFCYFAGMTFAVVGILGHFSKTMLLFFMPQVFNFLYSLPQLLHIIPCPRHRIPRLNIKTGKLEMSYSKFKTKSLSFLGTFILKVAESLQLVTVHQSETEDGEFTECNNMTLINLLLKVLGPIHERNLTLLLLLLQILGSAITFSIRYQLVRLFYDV
Method: Samples with a volume of 40 μl were prepared containing 0.5 mg/ml protein and 50 μM compound or 5% DMSO in GFB. A glass capillary was dipped into each sample, with the capillary held horizontally to ensure that the capillary was full of the sample. The capillaries were placed on the capillary holder on the Nanotemper Prometheus. Technical triplicates of each sample were prepared, and each experiment was conducted with biological triplicates of each protein. PR.ThermControl software was used to run the experiment and analyse the data. A melting curve from 20 °C – 95 °C at 5 °C/min was performed. The minimum of the first derivative of the 330/350nm ratio was used to determine the Tm1/2.

[1] = Tolerance testing in uninfected mice; type: in vivo; conditions: uninfected mice (n=5), 10 days, daily 30 mg.kg^-1 ip
DPAGT1 = biological target: T2, DPAGT1 (Homo sapiens, UniProt Q9H3H5); assay: Radiolabeled substrate enzyme activity assay; type: biochemical, H. sapiens; conditions: purified DPAGT1 enzyme, Figure 6F
T2 construct: H. sapiens DPAGT1 (1-408, N-terminal 6 x HIS tag, TEV cleavage site); 6xHis purification tag with TEV site (N, cleaved yes); made in house; host or cells: Spodoptera frugiperda Sf9 insect cells (baculovirus)
T2 sequence (Q9H3H5 1-408): T1 sequence (Q9H3H5 1-408 Y170C) with C170Y
Method: 2 μl of 2 μM DPAGT1 WT or mutant proteins in GFB buffer supplemented with 5mM extra MgCl2, 1% OGNG/CHS/cardiolipin and dolichyl monophosphate was combined with 2 μl of UDP-N-acetyl [1-14C] […] The reaction was terminated by the addition of 6 μl of 100% methanol and immediately transferred onto ice. 1 μl of sample was spotted onto a silica coated TLC plate in triplicate and run with a mobile phase consisting of chloroform, methanol, and water at a 65:25:4 ratio respectively. After the run, the TLC plate was dried thoroughly, wrapped in cling film, incubated with a phosphor imaging substrate for 4 days, then phosphor imaged using a Biorad. The pixel density of the spots corresponding to the hydrophobic product was divided by combined pixel density of the product and the substrate and multiplied by the known concentration of substrate added to ascertain the amount of product formed.

[2] = Human plasma protein binding assay; type: in vitro ADME; conditions: read-out: human plasma protein binding, bound (converted)

| SMILES | Thermostability (Tm1/2) with added compound (DPAGT1 Tyr170Cys) | tolerance, signs of toxicity [1] | effect on DPAGT1 catalytic activity (DPAGT1) | fraction unbound [2] |
| --- | --- | --- | --- | --- |
| N[C@H]1[C@H](O[C@H]2O[C@H](CO)[C@@H](O)[C@H](O)[C@H]2N)O[C@H](C[C@@H](O)[C@H]2O[C@@H](n3ccc(=O)[nH]c3=O)[C@H](O)[C@@H]2O)[C@H](O)[C@@H]1O [TUN, α-D-glucosamine-(1”-11')-tunicamyl uracil dihydrochloride] | 83.1±0.8 °C |  |  |  |
| CCCCCCCC(=O)N[C@H]1[C@H](O[C@H]2O[C@H](CO)[C@@H](O)[C@H](O)[C@H]2NC(=O)CCCCCCC)O[C@H](C[C@@H](O)[C@H]2O[C@@H](n3ccc(=O)[nH]c3=O)[C@H](O)[C@@H]2O)[C@H](O)[C@@H]1O [TUN-8,8, Di-N-octanoyl-tunicamycin] |  | no signs of toxicity | negligible effect | 0.018 |
